The values below come from patent US6849607B2, “Galectin recognized photosensitizers for photodynamic therapy” (Health Research, Inc., priority 2001, dated 2005).

The target of one experiment is Gal-1 (Homo sapiens, UniProt P09382). The experiment in a line: Gal-1 inhibition binding, indirect ELISA (Gal-1-HRP conjugate on asialofetuin-coated wells). The procedure:
Cell. Biochem., 43, 43-57, 1990) to eliminate the thiol requirement for retention of carbohydrate-binding activity. Coupling of alkylated galaptin to Horseradish peroxidase (HRP) was carried out by a two-step glutaraldehyde procedure as described by Engvall (Engvall E., Enzyme Immunoassay ELISA and EMIT, Methods in Enzymology, 70, 419-439, 1980). The galactin-peroxidase conjugate was prepared in 50% glycerol-1% BSA and stored at -20° C. until use. The binding of the Gal-1 to photosensitizers with and without the galactose moiety was measured by an indirect ELISA method as described by Chen et al. […] The microtiter wells (Dynatech Laboratories, Chantilly, Va.) were coated with 2 μg asial fetuin (Sigma) in 100 μl of 0.1M sodium carbonate, 0.2% NaN3, pH 9.6 at 37° C. for 3h. The plates were tightly covered with parafilm and stored at 4° C. for use within three weeks. The optimal dilution for Gal-1HRP conjugate was determined by checker-board titration. For studying the effect of saccharides and their conjugates, 60 μl aliquots of diluted Gal-1-HRP conjugate containing 1.4 μg of Gal-1 were mixed separately in duplicate with 60 μl dilute buffer as well as serially diluted test compounds and incubated for 1 h at 37° C. A 100 μl aliquot was transferred to the microtiter wells, which had been coated with […] Fetuin, blocked and washed. The plates were then incubated for 1 h at 37° C. followed by color development with ABTS (Kirkegaard & Perry lab. Gaithersburg, Md.) and reading at 405 nm on an ELISA reader.
(In general: In an ELISA, binding on a coated surface is turned into a signal by an enzyme label.)

The subject of experiment [1] is Molt-4 human leukemic T-cells. The experiment in a line: In vitro photosensitizing efficacy in Molt-4 cells (MTT). The class given is cell-based. As to conditions: for effect of the free saccharide on PDT activity of the conjugate: Molt-4 cells incubated with galactose or lactose at various concentrations (0-100 μM). The protocol:
Both cell lines are known to have some expression for Galectin-1 ([…]., Baum, L. G. and Brewer, C. F., Multivalent Protein-carbohydrate Interactions. A New […] for Super Molecular Assembly and Signal Transduction, Biochemistry, 40:3009-3015, 2001). The Molt-4 cells were grown in RPMI 1640 5% FCS (Fetal calf serum) in 100% humidity with 5% CO2. Cells were transferred to phenol red free (PRF) RPMI 1640 media with 1% FCS and plated at 2.5×10^4 cells/well. After 3 hours incubation in the dark, the cells were washed once with PBS and re-suspended in prf RPMI 1640 with 1% FCS. These cells were then illuminated with a […] Quartz Halogen Lamp with IR and bandpass dichroic filters to allow light between 400 nm-700 nm, at a dose rate of 16 mW/cm^2 at 695 nm. The RIF tumor cells were grown in alpha-DMEM with 10% fetal calf serum, penicillin and streptomycin. Cells were maintained in 5% CO2, 95% air and 100% humidity. […] After overnight incubation to allow the cells to attach the photosensitizers 14 were individually added at variable concentrations. After a 3 hr incubation in the dark at 37° C., the cells were washed once with PBS, then irradiated with the same light source as above (Molt-4 procedure), and the optimal cell kill was obtained at a concentration of 1.0 μM. After PDT the cells were washed once and placed in complete media and incubated for 48 hrs. […] Louis, Mo.) was added to each well (Kessel, D., Luo, Y., Photodynamic Therapy: A Mitochondrial Inducer of Apoptosis, Cell Death Differ. 6:28-35, 1999; MacDonald, I., Morgan, […]., Litchfield, D. J. Dougherty, T. J., Subcellular Localization Patterns and their Relationship to Photodynamic Activity of Pyropheophorbide-a Derivatives, Photochem. Photobiol., 70, 789-997, 1999). After 4 hr incubation at 37° C. the MTT+media were removed and 100 μl DMSO was added to solubilize the formazin crystals. The 96-well plate was read on a microtiter plate reader (Miles Inc. Titertek Multiscan Plus MK II) at an absorbance of 560 nm. The results were plotted as percent survival of the corresponding dark (drug no light) control for each compound tested. Each data point represents the mean from 3 separate experiments, and the error bars are the standard deviation. Each experiment was done with 5 replicate wells. […] The cells were then washed once with phosphate buffer saline (PBS), carbohydrate conjugates were then added, and the cells were again incubated for an additional 3 hrs. After treating with light, the cells were re-suspended in fresh media and incubated for 48 hrs. MTT was added to the cells and incubated for an additional 4 hrs. Dimethylsulfoxide (100 μl) was then added to each well to dissolve the formazin crystals. The plates were read on a 96 well plate reader at an absorbance of 560 nm. The data are in replicates of 6 wells and are normalized to control cells (light, no drug). In another set of experiments, a similar procedure was followed, except, the cells were not washed before the light treatment. […] Louis, Mo.) was added to the cells and incubated for an additional 4 hrs. Dimethylsulfoxide (100 μl) was then added to each well to dissolve the formazin crystals. The plates were read on a 96 well plate reader (Miles Inc. Titertek Multiscan Plus MK II) at an absorbance of 560 nm. The data are in replicates of 6 wells and are normalized to control cells (light, no drug).

The subject of experiment [2] is radiation induced fibrosarcoma (RIF) tumor cell. The experiment in a line: In vitro photosensitizing activity in RIF tumor cells (MTT). Type of experiment: cell-based. As to conditions: 2.0 μM, light dose of 4 J/cm2. The protocol:
Both cell lines are known to have some expression for Galectin-1 (Sacchettini, J. C., Baum, L. G. and Brewer, C. F., Multivalent Protein-carbohydrate Interactions. A New Paradiagm for Super Molecular Assembly and Signal Transduction, Biochemistry, 40:3009-3015, 2001). The Molt-4 cells were grown in RPMI 1640 5% FCS (Fetal calf serum) in 100% humidity with 5% CO2. Cells were transferred to phenol red free (PRF) RPMI 1640 media with 1% FCS and plated at 2.5×10^4 cells/well. After 3 hours incubation in the dark, the cells were washed once with PBS and re-suspended in prf RPMI 1640 with 1% FCS. These cells were then illuminated with a 1000W Quartz Halogen Lamp with IR and bandpass dichroic filters to allow light between 400 nm-700 nm, at a dose rate of 16 mW/cm^2 at 695 nm. The RIF tumor cells were grown in alpha-DMEM with 10% fetal calf serum, penicillin and streptomycin. Cells were maintained in 5% CO2, 95% air and 100% humidity. For determining the PDT efficacy, these cells were plated in 96-well plates and a density of 1×10^4 cells well in complete media. After overnight incubation to allow the cells to attach the photosensitizers 14 were individually added at variable concentrations. After a 3 hr incubation in the dark at 37° C., the cells were washed once with PBS, then irradiated with the same light source as above (Molt-4 procedure), and the optimal cell kill was obtained at a concentration of 1.0 μM. After PDT the cells were washed once and placed in complete media and incubated for 48 hrs. […] The 96-well plate was read on a microtiter plate reader (Miles Inc. Titertek Multiscan Plus MK II) at an absorbance of 560 nm. […]

Gal-1, sequence (P09382 whole entry): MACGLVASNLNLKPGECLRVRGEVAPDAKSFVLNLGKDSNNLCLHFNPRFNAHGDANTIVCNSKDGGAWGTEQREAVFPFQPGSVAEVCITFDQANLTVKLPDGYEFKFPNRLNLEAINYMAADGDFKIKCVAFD

With `C=C(C=CCO[C@@H]1O[C@H](CO)[C@H](O)[C@H](O)[C@H]1O)CN1C(=O)c2c3nc(cc4[nH]c(cc5nc(cc6[nH]c2c(c6C)C1=O)C(CC)=C5C)c(CC)c4C)C(C)C3CCC(=O)OC` (mixture of isomers) [2a, Galactose-Chlorin conjugate Joined with diene linkage], the IC50 on Gal-1 (ELISA, read-out: I50, inhibition of Gal-1 binding) amounted to 114 µM. The “in vitro photosensitizing efficacy (in words)” value in experiment [1] (Molt-4 cells, 2.0 μM, 2a, 3a compared to 1a, 4a compared to 2a and 3a) was “significant increases in photosensitizing efficacy”. For the same molecule, the “effect of free lactose on PDT efficacy of the photosensitizer” value in experiment [1] (Molt-4 cells, photosensitizer with lactose in a ratio of 1:100, without washing) is “complete inhibition in PDT efficacy”. For the same molecule, in experiment [2], the cell kill was determined as 100%.
On to `O=C[C@H](O)[C@@H](O)[C@@H](O)[C@H](O)CO` [galactose, reference compound], for which, on Gal-1 (at 450 μM), 450 µM produced 3% inhibition and the “inhibition of Gal-1 binding” value was 3.29%. Further, the “effect of the free saccharide on PDT activity of the conjugate” value in experiment [1] is “did not result in any inhibition in PDT activity”.
With `OC[C@H]1O[C@@H](O[C@H]2[C@H](O)[C@@H](O)C(O)O[C@@H]2CO)[C@H](O)[C@@H](O)[C@H]1O` (some centres unmarked) [lactose, reference compound], the “effect of the free saccharide on PDT activity of the conjugate” value in experiment [1] is “significant decrease in photosensitizing efficacy”.

One may read the inhibition as the relative decrease from the control value, in per cent. Lower therefore signals little suppression.
